From publication PMC11191602, “A novel and selective fluorescent ligand for the study of adenosine A2B receptors” (Pharmacology Research & Perspectives, 2024)

How the values were obtained:
endogenous A2BR = biological target: T1, endogenous A2BR (Homo sapiens, UniProt P29275); assay: cAMP GloSensor luminescence assay in HEK293G cells endogenously expressing A2BR; format: cell-based; settings: 20 nM and 200 nM PSB603‐BY630, endogenous A2BR
T1 construct: HEK293G cells that express the cAMP biosensor Glosensor also endogenously express both A2BR and A2AR; host or cells: HEK293G
T1 sequence (P29275 1-332): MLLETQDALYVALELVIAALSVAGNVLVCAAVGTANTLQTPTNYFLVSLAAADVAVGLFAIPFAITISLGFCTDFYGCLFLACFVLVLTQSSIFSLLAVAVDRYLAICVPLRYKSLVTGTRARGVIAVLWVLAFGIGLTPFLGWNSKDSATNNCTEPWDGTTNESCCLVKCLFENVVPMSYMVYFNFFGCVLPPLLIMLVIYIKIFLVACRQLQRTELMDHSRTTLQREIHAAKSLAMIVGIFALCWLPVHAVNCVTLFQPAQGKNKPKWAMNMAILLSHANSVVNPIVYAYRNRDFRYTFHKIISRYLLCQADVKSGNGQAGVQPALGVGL
Experimental: The cAMP GloSensor™ luminescence assay was performed according to the manufacturer's instructions (Promega Corporation, Madison, WI, USA). Briefly, after 24 h incubation at 37°C and 5% CO2 after cell plating (40 000 cells/well in 100 μL), medium was aspirated from each well of the 96‐well plate. Cells were incubated in 50 μL HEPES buffered saline solution (HBSS; 2 mM sodium pyruvate, 145 mM NaCl, 10 mM D‐glucose, 5 mM KCl, 1 mM MgSO4.7H2O, 10 mM HEPES, 1.3 mM CaCl2, 1.5 mM NaHCO3 in double‐distilled water, pH 7.45) containing 3% GloSensor™ cAMP reagent at 37°C for 1.5 h. For agonist studies, an initial baseline luminescence read was made at time zero, the plate was then removed from the plate‐reader and a further 50 μL HBSS containing agonist (2× final concentration) or HBSS (vehicle control) added. Luminescence was measured on an open channel (gain of 3600) immediately after these additions, and then continuously over 60 min, reading each well once every minute, by a PHERAstar FSX microplate reader (BMG Labtech, Offenburg, Germany) at 37°C. Increases in luminescence are indicative of intracellular cAMP accumulation, thus the temporal changes in relative cytosolic cAMP concentration were measured upon agonist or vehicle addition. Antagonist action was determined following 30 min pre‐incubation of HBSS in the presence of 20 and 200 nM PSB603‐BY630 and read as above. All conditions were performed in triplicates within each plate.

human NLuc‐A1R = biological target: T2, human NLuc‐A1R (Homo sapiens, UniProt P30542); assay: NanoBRET saturation binding in stable HEK293T cell line expressing NLuc‐A1R; settings: non‐specific defined with 1 μM SLV320; PSB603‐BY630 at concentrations up to 500 nM
T2 construct: expressed in transfected cells
T2 sequence (P30542 1-326): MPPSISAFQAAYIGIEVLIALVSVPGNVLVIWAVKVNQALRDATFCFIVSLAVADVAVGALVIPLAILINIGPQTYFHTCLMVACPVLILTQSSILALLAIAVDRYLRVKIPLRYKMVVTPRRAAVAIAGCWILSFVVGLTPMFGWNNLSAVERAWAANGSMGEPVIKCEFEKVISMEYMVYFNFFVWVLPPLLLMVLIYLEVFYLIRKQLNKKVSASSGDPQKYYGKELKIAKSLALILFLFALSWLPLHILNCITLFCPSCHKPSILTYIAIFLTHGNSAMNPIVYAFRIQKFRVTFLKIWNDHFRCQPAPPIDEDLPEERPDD
Experimental: Saturation and competition binding assays were performed as previously described.[36] Briefly, cells were seeded in 96‐well white clear‐bottomed Greiner plates pre‐treated with 10 μg/mL poly‐D‐lysine (Sigma‐Aldrich, Missouri USA) at a density of 30 000–35 000 cells per well in DMEM supplemented with 10% FBS. […] The NanoLuc substrate, furimazine (Promega Corporation, Wisconsin, USA), was then added to each well (1:400 dilution) and the plate was incubated for 10 min in the dark at 37°C. The resulting bioluminescence resonance energy transfer (BRET) was measured using a PHERAstar FS plate reader (BMG Labtech) at 37°C. For each well, filtered light emissions at 460 nm (80 nm bandpass) and >610 nm (longpass) for the BODIPY630/650 ligand were simultaneously measured. BRET ratios were calculated by dividing the 610 nm emission by the 460 nm emission. All conditions were performed in 2–6 replicates within each plate. For kinetic experiments, cells were preincubated for 10 min with 1:400 dilution of furimazine prior to addition of 200 nM PSB603‐BY630 and BRET ratios determined every 0.5 min. At 60 min, 10 μM MRS‐1706 was added and the ligand‐binding kinetics followed for a further 60 min.

CCCn1c(=O)[nH]c2[nH]c(-c3ccc(S(=O)(=O)N4CCN(c5ccc(OCCNC(=O)CCCCCNC(=O)COc6ccc(/C=C/C7=[N+]8C(=Cc9ccc(-c%10cccs%10)n9[B-]8(F)F)C=C7)cc6)cc5)CC4)cc3)nc2c1=O [PSB603‐BY630]
effect on cAMP concentration‐response curve to BAY 60–6583 (endogenous A2BR): concentration‐dependent reduction in the maximal response to BAY 60–6583 without altering the EC50
specific binding to NLuc‐A1R (human NLuc‐A1R): negligible
